Starred links: 1 amine or outer side, 2 acyl side, 3 side chain; linkers in the order of their positions; H or OH if unused. Non-standard residues stand in square brackets, D forms with d. Residues, ends and D or L forms follow the SMILES beside them. ξ: configuration not given here. *: point of attachment. X3 = CCc1cc(OC)ccc1-c1ccc(CC(N*)C(=S)NC(CCCc2ccccc2)C(N)=O)cc1; Leu(5,5,5,5',5',5'-F6) = N[C@@H](CC(C(F)(F)F)C(F)(F)F)C(=O)O; ξBip(2'-Et-4'-OMe) = CCc1cc(OC)ccc1-c1ccc(CC(N)C(=O)O)cc1; ξNva(5-(3,5-Me2-Ph)) = Cc1cc(C)cc(CCCC(N)C(=O)O)c1; ξNva(5-(4-Cl-2-MePh)) = Cc1cc(Cl)ccc1CCCC(N)C(=O)O; ξαMePhe(2-F) = CC(N)(Cc1ccccc1F)C(=O)O; X2 = O=C(C(CCCc1ccccc1Cl)N[*:1])[*:2]; aThr = C[C@H](O)[C@H](N)C(=O)O; Ac3c = NC1(C(=O)O)CC1; Aib = CC(C)(N)C(=O)O
What was measured:
Assay type in all cases: in vitro ADME
DPP IV = DPP IV (Homo sapiens, UniProt P27487); assay: Stability against DPP IV enzyme; conditions: 37° C.; for % degradation of peptidomimetics in 24 h when incubated with DPP-IV enzyme: 2 μM peptidomimetic; for half-life at 2 μM: DPP IV enzyme, pH 7.8, 2 μM peptidomimetic, read-out: half-life (t1/2) when incubated with DPP-IV enzyme
DPP IV, sequence (P27487 whole entry, species assumed): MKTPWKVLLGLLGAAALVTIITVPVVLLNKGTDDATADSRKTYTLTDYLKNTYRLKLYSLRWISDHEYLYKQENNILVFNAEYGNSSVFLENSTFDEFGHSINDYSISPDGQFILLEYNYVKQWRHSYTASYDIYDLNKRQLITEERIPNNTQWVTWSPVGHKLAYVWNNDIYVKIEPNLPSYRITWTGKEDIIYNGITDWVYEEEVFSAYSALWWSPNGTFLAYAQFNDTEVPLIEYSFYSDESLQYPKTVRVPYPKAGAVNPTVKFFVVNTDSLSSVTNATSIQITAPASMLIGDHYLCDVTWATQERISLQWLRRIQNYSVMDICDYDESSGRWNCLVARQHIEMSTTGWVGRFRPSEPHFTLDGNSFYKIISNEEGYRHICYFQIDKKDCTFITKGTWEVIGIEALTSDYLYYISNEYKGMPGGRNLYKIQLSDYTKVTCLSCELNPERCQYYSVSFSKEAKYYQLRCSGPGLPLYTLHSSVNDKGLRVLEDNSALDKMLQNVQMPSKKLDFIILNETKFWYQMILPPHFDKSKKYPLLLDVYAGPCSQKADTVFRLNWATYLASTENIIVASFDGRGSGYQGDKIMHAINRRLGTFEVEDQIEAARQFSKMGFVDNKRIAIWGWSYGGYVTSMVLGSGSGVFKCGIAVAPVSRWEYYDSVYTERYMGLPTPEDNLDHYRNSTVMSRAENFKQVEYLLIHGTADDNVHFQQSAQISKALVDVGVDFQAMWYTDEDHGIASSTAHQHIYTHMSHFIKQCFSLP
Procedure: (§1) Reactions were terminated by the addition of TFA/H2O (15 mL, 10% (v/v)). […] The column was equilibrated with TFA/H20, at a flow rate of 1 mL/min.

[1] = Stability in human plasma; conditions: 2 μM peptidomimetic, pooled human plasma, 37° C.; for half-life at 2 μM: pH 7.8, read-out: half-life (t1/2) when incubated with human plasma
Procedure: as §1

[2] = Stability in simulated gastric fluid; conditions: 2 μM peptidomimetic, simulated gastric fluid pH 1.5, 37° C.; for half-life at 2 μM: read-out: half-life (t1/2) when incubated with simulated gastric fluid
Procedure: as §1

[3] = Stability in simulated intestinal fluid; conditions: 2 μM peptidomimetic, simulated intestinal fluid pH 7.5, 37° C.; for half-life at 2 μM: read-out: half-life (t1/2) when incubated with simulated intestinal fluid
Procedure: as §1

[4] = Stability in liver microsomes; conditions: 2 μM peptidomimetic, human liver microsomes, 37° C.; for half-life at 2 μM: pH 7.8, read-out: half-life (t1/2) when incubated with liver microsomes
Procedure: as §1

SMILES | % degradation of peptidomimetics in 24 h when incubated with DPP-IV enzyme (DPP IV) [%] | half-life at 2 μM (DPP IV) [h] | % degradation of peptidomimetics in 24 h when incubated with human plasma [1] [%] | half-life at 2 μM [1] [h] | half-life (t1/2) when incubated with simulated gastric fluid [2] | % degradation of peptidomimetics in 24 h when incubated with simulated gastric fluid [2] [%] | half-life (t1/2) when incubated with simulated intestinal fluid [3] | % degradation of peptidomimetics in 24 h when incubated with simulated intestinal fluid [3] [%] | % degradation of peptidomimetics in 24 h when incubated with liver microsomes [4] [%] | half-life at 2 μM [4] [h] | half-life (t1/2) when incubated with human plasma [1] | half-life at 2 μM [2] [h] | half-life at 2 μM [3] [h] | half-life (t1/2) when incubated with liver microsomes [4]
CCc1cc(OC)ccc1-c1ccc(CC(NC(=O)[C@H](CC(=O)O)NC(=O)[C@H](CO)NC(=O)[C@@H](NC(=O)[C@H](Cc2ccccc2)NC(=O)[C@@H](NC(=O)CNC(=O)[C@H](CCC(N)=O)NC(=O)C2(C)CCCN2C(=O)[C@@H](N)Cc2c[nH]cn2)[C@@H](C)O)[C@@H](C)O)C(=O)NC(CCCc2ccc(Cl)cc2C)C(N)=O)cc1 (single isomer, unassigned) [compound 12] | 76 | 9 | 78 | 8 | (8) h | 14 | (6) h | 43 | 80 | 1 | – | – | – | –
CCc1cc(OC)ccc1-c1ccc(CC(NC(=O)[C@H](CC(=O)O)NC(=O)[C@H](CO)NC(=O)[C@@H](NC(=O)[C@H](Cc2ccccc2)NC(=O)[C@@H](NC(=O)CNC(=O)[C@H](CCC(N)=O)NC(=O)[C@H](C)NC(=O)[C@@H](N)Cc2c[nH]cn2)[C@@H](C)O)[C@@H](C)O)C(=O)NC(CCCc2cc(C)cc(C)c2)C(N)=O)cc1 (stereo partly drawn) [compound 14] (H-HAQGTFTSD[ξBip(2'-Et-4'-OMe)][ξNva(5-(3,5-Me2-Ph))]-NH2) | 74 | 9 | 75 | 8 | (8) h | 12 | (6) h | 46 | 83 | 1 | – | – | – | –
CCc1cc(OC)ccc1-c1ccc(CC(NC(=O)[C@H](CC(=O)O)NC(=O)[C@H](CO)NC(=O)[C@@H](NC(=O)C(C)(Cc2ccccc2F)NC(=O)[C@@H](NC(=O)CNC(=O)[C@H](CC(C(F)(F)F)C(F)(F)F)NC(=O)C(C)(C)NC(=O)[C@@H](N)Cc2c[nH]cn2)[C@@H](C)O)[C@@H](C)O)C(=O)NC(CCCc2ccccc2)C(N)=O)cc1 (stereo partly drawn) [compound 234] | 72 | – | 70 | – | – | 100 | – | 100 | 100 | 0.5 | (9) h | 0.5 | 0.5 | –
CCc1cc(OC)ccc1-c1ccc(CC(NC(=O)[C@H](CC(=O)O)NC(=O)[C@H](CO)NC(=O)[C@@H](NC(=O)[C@H](Cc2ccccc2)NC(=O)[C@@H](NC(=O)CNC(=O)[C@H](CCC(N)=O)NC(=O)C2(NC(=O)[C@@H](N)Cc3c[nH]cn3)CC2)[C@@H](C)O)[C@@H](C)O)C(=O)NC(CCCc2ccccc2Cl)C(N)=O)cc1 (stereo partly drawn) [compound 74] (H-H[Ac3c]QGTFTSD[ξBip(2'-Et-4'-OMe)][X2]-NH2) | 76 | – | 78 | – | – | 100 | – | 100 | 100 | 0.5 | (9) h | 0.5 | 0.5 | –
CCc1cc(OC)ccc1-c1ccc(CC(CNC(CCCc2ccccc2)C(N)=O)NC(=O)[C@H](CC(=O)O)NC(=O)[C@H](CO)NC(=O)[C@@H](NC(=O)C(C)(Cc2ccccc2F)NC(=O)[C@@H](NC(=O)CNC(=O)[C@H](CC(C(F)(F)F)C(F)(F)F)NC(=O)C(C)(C)NC(=O)[C@@H](N)Cc2c[nH]cn2)[C@H](C)O)[C@H](C)O)cc1 (stereo partly drawn) [compound 215] | 00 | > 24 | 00 | > 24 | – | 00 | – | 00 | 32 | – | – | > 24 | > 24 | (5) h
CCc1cc(OC)ccc1-c1ccc(CC(NC(=O)[C@H](CC(=O)O)NC(=O)[C@H](CO)NC(=O)[C@@H](NC(=O)C(C)(Cc2ccccc2F)NC(=O)[C@@H](NC(=O)CNC(=O)[C@H](CC(C(F)(F)F)C(F)(F)F)NC(=O)C(C)(C)NC(=O)[C@@H](N)Cc2c[nH]cn2)[C@H](C)O)[C@@H](C)O)C(=O)NC(CCCc2ccccc2)C(N)=O)cc1 (stereo partly drawn) [compound 226] | 74 | – | 75 | – | – | 100 | – | 100 | 100 | 0.5 | (9) h | 0.5 | 0.5 | –
CCc1cc(OC)ccc1-c1ccc(CC(NC(=O)[C@H](CC(=O)O)NC(=O)[C@H](CO)NC(=O)[C@@H](NC(=O)[C@H](Cc2ccccc2)NC(=O)[C@@H](NC(=O)CNC(=O)[C@H](CCC(N)=O)NC(=O)C2(NC(=O)[C@@H](N)Cc3c[nH]cn3)CC2)[C@@H](C)O)[C@@H](C)O)C(=O)NC(CCCc2ccc(F)cc2F)C(N)=O)cc1 (single isomer, unassigned) [compound 70] | 70 | 9 | 71 | 8 | (8) h | 14 | (6) h | 40 | 78 | 1 | – | – | – | –
CCc1cc(OC)ccc1-c1ccc(CC(NC(=O)[C@H](CC(=O)O)NC(=O)[C@H](CO)NC(=O)[C@@H](NC(=O)C(C)(Cc2ccccc2F)NC(=O)[C@@H](NC(=O)CNC(=O)[C@H](CC(C(F)(F)F)C(F)(F)F)NC(=O)C(C)(C)NC(=O)[C@@H](N)Cc2c[nH]cn2)[C@H](C)O)[C@H](C)O)C(=O)NC(CCCc2ccccc2F)C(N)=O)cc1 (stereo partly drawn) [compound 229] | 70 | – | 71 | – | – | 100 | – | 100 | 100 | 0.5 | (9) h | 0.5 | 0.5 | –
CCc1cc(OC)ccc1-c1ccc(CC(NC(=O)[C@H](CC(=O)O)NC(=O)[C@H](CO)NC(=O)[C@@H](NC(=O)[C@H](Cc2ccccc2)NC(=O)[C@@H](NC(=O)CNC(=O)[C@H](CCC(N)=O)NC(=O)[C@H](CO)NC(=O)[C@@H](N)Cc2c[nH]cn2)[C@@H](C)O)[C@@H](C)O)C(=O)NC(CCCc2ccc(Cl)cc2C)C(N)=O)cc1 (stereo partly drawn) [compound 8] (H-HSQGTFTSD[ξBip(2'-Et-4'-OMe)][ξNva(5-(4-Cl-2-MePh))]-NH2) | 00 | > 24 | 00 | > 24 | – | 00 | – | 00 | 35 | – | – | > 24 | > 24 | (5) h
CCc1cc(OC)ccc1-c1ccc(CC(NC(=O)[C@H](CC(=O)O)NC(=O)[C@H](CO)NC(=O)[C@@H](NC(=O)C(C)(Cc2ccccc2F)NC(=O)[C@@H](NC(=O)CNC(=O)[C@H](CC(C(F)(F)F)C(F)(F)F)NC(=O)C(C)(C)NC(=O)[C@@H](N)Cc2c[nH]cn2)[C@H](C)O)[C@H](C)O)C(=S)NC(CCCc2ccccc2)C(N)=O)cc1 (stereo partly drawn) [compound 219] (H-H[Aib][Leu(5,5,5,5',5',5'-F6)]G[aThr][ξαMePhe(2-F)][aThr]SD-X3) | 00 | > 24 | 00 | > 24 | – | 00 | – | 00 | 33 | – | – | > 24 | > 24 | (5) h
